Legend:
Assay type in all cases: in vivo
[1] = test system: Green Peach Aphid (Myzus persicae); experiment: Bioassay on Green Peach Aphid (GPA), foliar spray on cabbage seedlings; settings: 72 h, 200 ppm foliar spray on cabbage seedlings, three days, Abbott corrected % control, read-out: GPA % Control (or Mortality) rating
Experimental: Certain molecules disclosed in this document were tested against GPA using procedures described in the following example. In the reporting of the results, the “GPA & YFM Rating Table” was used (See Table Section).
Cabbage seedlings grown in 3-inch pots, with 2-3 small (3-5 cm) true leaves, were used as test substrate. The seedlings were infested with 20-50 GPA (wingless adult and nymph stages) one day prior to chemical application. Four pots with individual seedlings were used for each treatment. Test molecules (2 mg) were dissolved in 2 mL of acetone/methanol (1:1) solvent, forming stock solutions of 1000 ppm test molecule. The stock solutions were diluted 5× with 0.025% Tween 20 in water to obtain the solution at 200 ppm test molecule. A hand-held aspirator-type sprayer was used for spraying a solution to both sides of […] leaves until runoff. Reference plants (solvent check) were sprayed with the diluent only containing 20% by volume of acetone/methanol (1:1) solvent. Treated plants were held in a holding room for three days at approximately 25° C. and ambient relative humidity (RH) prior to grading. Evaluation was conducted by counting the number of live aphids per plant under a microscope. Percent control was measured using Abbott's correction formula (W. S. Abbott, “A Method of Computing the Effectiveness of an Insecticide” J. Econ. Entomol. 18 (1925), pp. 265-267) as follows. Corrected % Control=100*(X−Y)/X where X=No. of live aphids on solvent check plants and Y=No. of live aphids on treated plants. The results are indicated in the table entitled “Table ABC: Biological Results” (See Table Section).

[2] = test system: Beet Armyworm (Spodoptera exigua); experiment: Bioassay on Beet Armyworm (BAW), 128-well diet tray assay; settings: for mortality at 50 µg/cm2: Spodoptera exigua, 168 h, 50 μg/cm^2 on artificial diet, second instar larvae, five to seven days, read-out: BAW % Control (or Mortality) rating
[3] = test system: Cabbage Looper (Trichoplusia ni); experiment: Bioassay on Cabbage Looper (CL), 128-well diet tray assay; settings: 168 h, 50 μg/cm^2 on artificial diet, second instar larvae, five to seven days, read-out: CL % Control (or Mortality) rating
How it was run: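 Diet tray, 2nd instar, 1–5 larvae/well; 50 μg/cm^2 compound surface-applied (acetone:water 90:10), dried; 8 wells/treatment; 25° C, 14:10 L:D, 5–7 d; % mortality, mean of 8 wells.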

[4] = test system: Yellow Fever Mosquito (Aedes aegypti); settings: about 1 day-old larvae, 3 days, scored on mortality
Experimental: Certain molecules disclosed in this document were tested against YFM using procedures described in the following paragraph. In the reporting of the results, the “GPA & YFM Rating Table” was used (See Table Section).
Master plates containing 400 μg of a molecule dissolved in 100 μL of dimethyl sulfoxide (DMSO) (equivalent to a 4000 ppm solution) are used. A master plate of assembled molecules contains 15 μL per well. To this plate, 135 μL of a 90:10 water/acetone mixture is added to each well. A robot (Biomek® NXP Laboratory Automation Workstation) is programmed to dispense 15 μL aspirations from the master plate into an empty 96-well shallow plate (“daughter” plate). There are 6 reps (“daughter” plates) created per master. The created “daughter” plates are then immediately infested with YFM larvae.
The day before plates are to be treated, mosquito eggs are placed in Millipore water containing liver powder to begin hatching (4 g. into 400 mL). After the “daughter” plates are created using the robot, they are infested with 220 μL of the liver powder/larval mosquito mixture (about 1 day-old larvae). After plates are infested with mosquito larvae, a non-evaporative lid is used to cover the plate to reduce drying. Plates are held at room temperature for 3 days prior to grading. After 3 days, each well is observed and scored based on mortality. The results are indicated in the table entitled “Table ABC: Biological Results” (See Table Section).

Compound O=C(Nn1ccnc1)c1ccc(/C(F)=C/C(c2cc(Cl)c(Cl)c(Cl)c2)C(F)(F)F)cc1C(F)(F)F (stereo not shown) [F10, (Z)—N-(1H-Imidazol-1-yl)-4-(1,4,4,4-tetrafluoro-3-(3,4,5-trichlorophenyl)but-1-en-1-yl)-2-(trifluoromethyl)benzamide] has a mortality at 200 ppm [1] of 0 to 80%, a mortality at 50 µg/cm2 [2] of 50 to 100% and a mortality at 50 µg/cm2 [3] of 50 to 100%.
With O=C(NNc1ncc(Cl)cn1)c1ccc(/C(F)=C/C(c2cc(Cl)c(Cl)c(Cl)c2)C(F)(F)F)cc1C(F)(F)F (stereo not shown) [F63, (Z)—N′-(5-Chloropyrimidin-2-yl)-4-(1,4,4,4-tetrafluoro-3-(3,4,5-trichlorophenyl)but-1-en-1-yl)-2-(trifluoromethyl)benzohydrazide] the mortality at 200 ppm [1] was 0 to 80%, the mortality at 50 µg/cm2 [2] was 50 to 100% and the “YFM % Control (or Mortality) rating” value [4] was “A (80-100)”. For the same compound, the mortality at 50 µg/cm2 [3] was 50 to 100%.
O=C(NNc1ncccn1)c1ccc(/C(F)=C/C(c2cc(Cl)c(Cl)c(Cl)c2)C(F)(F)F)cc1C(F)(F)F (stereo not shown) [F97, (Z)—N′-(pyrimidin-2-yl)-4-(1,4,4,4-tetrafluoro-3-(3,4,5-trichlorophenyl)but-1-en-1-yl)-2-(trifluoromethyl)benzohydrazide] was tested, and the mortality at 200 ppm [1] was 80 to 100%, the “BAW (Table CD-1)” value ([2]; 0.05 μg/cm^2) was 100 and the “BAW (Table CD-1)” value ([2]; 5.0 μg/cm^2) was 100. For the same compound, the “BAW (Table CD-1)” value ([2]; 50 μg/cm^2) was 100, the mortality at 50 µg/cm2 [2] was 50 to 100% and the mortality at 50 µg/cm2 [3] was 50 to 100%.
In the case of CN(NC(=O)c1ccc(/C(F)=C/C(c2cc(Cl)c(Cl)c(Cl)c2)C(F)(F)F)cc1C(F)(F)F)c1ncccn1 (stereo not shown) [F71, (Z)—N′-Methyl-N′-(pyrimidin-2-yl)-4-(1,4,4,4-tetrafluoro-3-(3,4,5-trichlorophenyl)but-1-en-1-yl)-2-(trifluoromethyl)benzohydrazide], the mortality at 200 ppm [1] is reported as 80 to 100%, the mortality at 50 µg/cm2 [2] is reported as 50 to 100% and the mortality at 50 µg/cm2 [3] is reported as 50 to 100%.
C#CCN(NC(=O)c1ccc(/C(F)=C/C(c2cc(Cl)c(Cl)c(Cl)c2)C(F)(F)F)cc1C)c1ncccn1 (stereo not shown) [F148, (Z)-2-Methyl-N′-(prop-2-yn-1-yl)-N′-(pyrimidin-2-yl)-4-(1,4,4,4-tetrafluoro-3-(3,4,5-trichlorophenyl)but-1-en-1-yl)benzohydrazide] was tested, and the mortality at 50 µg/cm2 [2] was 50 to 100%, the “YFM % Control (or Mortality) rating” value [4] was “A (80-100)” and the mortality at 50 µg/cm2 [3] was 50 to 100%.
Compound O=C(NNc1ncccn1)c1ccc(/C(F)=C/C(c2cc(Cl)c(F)c(Cl)c2)C(F)(F)F)cc1C(F)(F)F (stereo not shown) [F4, (Z)-4-(3-(3,5-Dichloro-4-fluorophenyl)-1,4,4,4-tetrafluorobut-1-en-1-yl)-N′-(pyrimidin-2-yl)-2-(trifluoromethyl)benzohydraziderazide] has a mortality at 200 ppm [1] of 0 to 80%, a mortality at 50 µg/cm2 [2] of 50 to 100% and a mortality at 50 µg/cm2 [3] of 50 to 100%.
In the case of O=C(NNc1ccccc1)c1ccc(/C(F)=C/C(c2cc(Cl)c(Cl)c(Cl)c2)C(F)(F)F)cc1C(F)(F)F (stereo not shown) [F133, (Z)—N′-Phenyl-4-(1,4,4,4-tetrafluoro-3-(3,4,5-trichlorophenyl)but-1-en-1-yl)-2-(trifluoromethyl)benzohydrazide], the mortality at 50 µg/cm2 [2] is reported as 50 to 100%, the “YFM % Control (or Mortality) rating” value [4] is reported as “A (80-100)” and the mortality at 50 µg/cm2 [3] is reported as 50 to 100%.
In the case of CN(C)N(CC(=O)NCC(F)(F)F)C(=O)c1ccc(/C(F)=C/C(c2cc(Cl)c(Cl)c(Cl)c2)C(F)(F)F)cc1C(F)(F)F (stereo not shown) [F184, (Z)-2-(2,2-dimethyl-1-(4-(1,4,4,4-tetrafluoro-3-(3,4,5-trichlorophenyl)but-1-en-1-yl)-2-(trifluoromethyl)benzoyl)hydrazinyl)-N-(2,2,2-trifluoroethyl)acetamide], the mortality at 50 µg/cm2 [2] is reported as 50 to 100%, the “YFM % Control (or Mortality) rating” value [4] is reported as “A (80-100)” and the mortality at 50 µg/cm2 [3] is reported as 50 to 100%.
With O=C(NN1CCS(=O)(=O)CC1)c1ccc(/C(F)=C/C(c2cc(Cl)c(Cl)c(Cl)c2)C(F)(F)F)cc1C(F)(F)F (stereo not shown) [F122, (Z)—N-(1,1-dioxidothiomorpholino)-4-(1,4,4,4-tetrafluoro-3-(3,4,5-trichlorophenyl)but-1-en-1-yl)-2-(trifluoromethyl)benzamide] the mortality at 50 µg/cm2 [2] was 50 to 100%, the “YFM % Control (or Mortality) rating” value [4] was “D (No activity noticed in this bioassay)” and the mortality at 50 µg/cm2 [3] was 50 to 100%.
For O=C(NNc1ncccn1)c1ccc(/C(F)=C/C(c2ccc(Br)c(Cl)c2)C(F)(F)F)cc1C(F)(F)F (stereo not shown) [F16, (Z)-4-(3-(4-Bromo-3-chlorophenyl)-1,4,4,4-tetrafluorobut-1-en-1-yl)-N′-(pyrimidin-2-yl)-2-(trifluoromethyl)benzohydrazide], the mortality at 50 µg/cm2 [2] was 50 to 100%, the “YFM % Control (or Mortality) rating” value [4] was “A (80-100)” and the mortality at 50 µg/cm2 [3] was 50 to 100%.
In the case of O=C(NNc1ncccn1)c1ccc(/C(F)=C/C(c2ccc(Cl)c(Cl)c2)C(F)(F)F)cc1C(F)(F)F (stereo not shown) [F117], the mortality at 50 µg/cm2 [2] is reported as 50 to 100%, the “YFM % Control (or Mortality) rating” value [4] is reported as “A (80-100)” and the mortality at 50 µg/cm2 [3] is reported as 50 to 100%.
For CNN(CC(=O)NCC(F)(F)F)C(=O)c1ccc(/C(F)=C/C(c2cc(Cl)c(Cl)c(Cl)c2)C(F)(F)F)cc1C(F)(F)F (stereo not shown) [F183, (Z)-2-(2-Methyl-1-(4-(1,4,4,4-tetrafluoro-3-(3,4,5-trichlorophenyl)but-1-en-1-yl)-2-(trifluoromethyl)benzoyl)hydrazinyl)-N-(2,2,2-trifluoroethyl)acetamide], the mortality at 50 µg/cm2 [2] was 50 to 100%, the “YFM % Control (or Mortality) rating” value [4] was “A (80-100)” and the mortality at 50 µg/cm2 [3] was 50 to 100%.
For CCN(NC(=O)c1ccc(/C(F)=C/C(c2cc(Cl)c(Cl)c(Cl)c2)C(F)(F)F)cc1C(F)(F)F)c1ncccn1 (stereo not shown) [F130, (Z)—N′-Ethyl-N′-(pyrimidin-2-yl)-4-(1,4,4,4-tetrafluoro-3-(3,4,5-trichlorophenyl)but-1-en-1-yl)-2-(trifluoromethyl)benzohydrazide], the mortality at 50 µg/cm2 [2] was 50 to 100%, the “YFM % Control (or Mortality) rating” value [4] was “A (80-100)” and the mortality at 50 µg/cm2 [3] was 50 to 100%.
In the case of Cc1cc(F)ccc1NNC(=O)c1ccc(/C(F)=C/C(c2cc(Cl)c(Cl)c(Cl)c2)C(F)(F)F)cc1C(F)(F)F (stereo not shown) [F35, (Z)—N′-(4-Fluoro-2-methylphenyl)-4-(1,4,4,4-tetrafluoro-3-(3,4,5-trichlorophenyl)but-1-en-1-yl)-2-(trifluoromethyl)benzohydrazide], the mortality at 50 µg/cm2 [2] is reported as 50 to 100%, the “YFM % Control (or Mortality) rating” value [4] is reported as “A (80-100)” and the mortality at 50 µg/cm2 [3] is reported as 50 to 100%.
Cc1csc(N(N)C(=O)c2ccc(/C(F)=C/C(c3cc(Cl)c(Cl)c(Cl)c3)C(F)(F)F)cc2C(F)(F)F)n1 (stereo not shown) [F109, (Z)—N-(4-Methylthiazol-2-yl)-4-(1,4,4,4-tetrafluoro-3-(3,4,5-trichlorophenyl)but-1-en-1-yl)-2-(trifluoromethyl)benzohydrazide] was tested, and the mortality at 50 µg/cm2 [2] was 50 to 100%, the “YFM % Control (or Mortality) rating” value [4] was “A (80-100)” and the mortality at 50 µg/cm2 [3] was 50 to 100%.
In the case of O=C(NNc1ncccn1)c1ccc(/C(F)=C/C(c2cc(Br)cc(Br)c2)C(F)(F)F)cc1C(F)(F)F (stereo not shown) [F176, (Z)-4-(3-(3,5-Dibromophenyl)-1,4,4,4-tetrafluorobut-1-en-1-yl)-N′-(pyrimidin-2-yl)-2-(trifluoromethyl)benzohydrazide], the mortality at 50 µg/cm2 [2] is reported as 50 to 100%, the “YFM % Control (or Mortality) rating” value [4] is reported as “A (80-100)” and the mortality at 50 µg/cm2 [3] is reported as 50 to 100%.
In the case of O=C(NNc1nnn[nH]1)c1ccc(/C(F)=C/C(c2cc(Cl)c(Cl)c(Cl)c2)C(F)(F)F)cc1C(F)(F)F (stereo not shown) [F95, (Z)-4-(1,4,4,4-Tetrafluoro-3-(3,4,5-trichlorophenyl)but-1-en-1-yl)-N′-(1H-tetrazol-5-yl)-2-(trifluoromethyl)benzohydrazide], the mortality at 50 µg/cm2 [2] is reported as 50 to 100%, the “YFM % Control (or Mortality) rating” value [4] is reported as “A (80-100)” and the mortality at 50 µg/cm2 [3] is reported as 50 to 100%.

From US10638756B2, “Molecules having pesticidal utility, and intermediates, compositions, and processes, related thereto” (Dow AgroSciences LLC, priority 2017, dated 2020)
